From PubChem BioAssay AID256 (DTP/NCI, 2004)
Values joined by “and” are separate entries in the source; they are usually repeats but may differ in a detail not shown here. Identical values can stand only once. Toxic doses and inconclusive results are not listed.

Test system: CD2F1 mice, L1210 leukemia ip, survival T/C
Assay: NCI In Vivo Anticancer Drug Screen. Data for tumor model L1210 Leukemia (intraperitoneal) in CD2F1 (CDF1) mice
Settings: higher = longer survival
How it was run: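 In this screen, transplantable tumors were grown in mice given either the compound or its vehicle. Results were expressed as the treated measurement relative to the control measurement.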

[1] = endpoint: mean survival time, dose: 100.0 mg/kg/injection, schedule: Q04DX003 (ip), vehicle: saline with Tween-80
[2] = endpoint: mean survival time, dose: 200.0 mg/kg/injection, schedule: Q04DX003 (ip), vehicle: saline with Tween-80
[3] = endpoint: mean survival time, dose: 400.0 mg/kg/injection, schedule: Q04DX003 (ip), vehicle: saline with Tween-80
[4] = endpoint: mean survival time, dose: 50.0 mg/kg/injection, schedule: Q01DX009 (ip), vehicle: saline with Tween-80
[5] = endpoint: mean survival time, dose: 100.0 mg/kg/injection, schedule: Q01DX009 (ip), vehicle: saline with Tween-80
[6] = endpoint: mean survival time, dose: 200.0 mg/kg/injection, schedule: Q01DX009 (ip), vehicle: saline with Tween-80
[7] = endpoint: mean survival time, dose: 400.0 mg/kg/injection, schedule: Q01DX009 (ip), vehicle: saline with Tween-80

CS(C)=O.[Cl-].[Cl-].[NH-]CC(O)C[N-]CC(O)CN.[Pt+4] (configuration not stated)
T/C (endpoint: median survival time, dose: 10.0 mg/kg/injection, schedule: Q04DX003 (ip), vehicle: saline): 97 % of control | T/C (endpoint: median survival time, dose: 20.0 mg/kg/injection, schedule: Q04DX003 (ip), vehicle: saline): 111 % of control | T/C (endpoint: median survival time, dose: 40.0 mg/kg/injection, schedule: Q04DX003 (ip), vehicle: saline): 108 % of control | T/C (endpoint: median survival time, dose: 50.0 mg/kg/injection, schedule: Q04DX003 (ip), vehicle: saline): 94 % of control | T/C (endpoint: median survival time, dose: 80.0 mg/kg/injection, schedule: Q04DX003 (ip), vehicle: saline): 98 % of control

COc1ccc(NC(=O)Nc2ccc(F)cc2)cc1
T/C [1]: 101 % of control | T/C [2]: 96 % of control | T/C [3]: 102 % of control

O=P1(N2CC2)OCCCN1CCCl (configuration not stated)
T/C (endpoint: mean survival time, dose: 3.8 mg/kg/injection, schedule: Q01DX001 (ip), vehicle: distilled water + Tween-80): 102 % of control | T/C (endpoint: mean survival time, dose: 7.5 mg/kg/injection, schedule: Q01DX001 (ip), vehicle: distilled water + Tween-80): 106 % of control | T/C (endpoint: mean survival time, dose: 15.0 mg/kg/injection, schedule: Q01DX001 (ip), vehicle: distilled water + Tween-80): 107 % of control | T/C (endpoint: mean survival time, dose: 30.0 mg/kg/injection, schedule: Q01DX001 (ip), vehicle: distilled water + Tween-80): 98 % of control | T/C (endpoint: mean survival time, dose: 62.5 mg/kg/injection, schedule: Q01DX001 (ip), vehicle: saline with Tween-80): 110 % of control

CCCCCCCCC(C(O)c1ccccc1)C(O)(C(F)(F)F)C(F)(F)F (configuration not stated)
T/C [1]: 98 % of control | T/C [2]: 102 % of control | T/C [3]: 104 % of control

NC(=S)c1ncn(C2OC(CO)C(O)C2O)c1N (configuration not stated)
T/C (endpoint: mean survival time, dose: 100.0 mg/kg/injection, schedule: Q04DX002 (ip), vehicle: saline): 115 % of control | T/C (endpoint: mean survival time, dose: 200.0 mg/kg/injection, schedule: Q04DX002 (ip), vehicle: saline): 110 % of control | T/C (endpoint: median survival time, dose: 25.0 mg/kg/injection, schedule: Q01DX005 (ip), vehicle: saline with Tween-80): 111 % of control | T/C (endpoint: median survival time, dose: 25.0 mg/kg/injection, schedule: Q01DX005 (ip), vehicle: saline): 113 % of control | T/C (endpoint: median survival time, dose: 25.0 mg/kg/injection, schedule: Q01DX009 (ip), vehicle: saline with Tween-80): 122 % of control | T/C (endpoint: median survival time, dose: 25.0 mg/kg/injection, schedule: Q01DX009 (ip), vehicle: saline): 115 % of control | T/C (endpoint: median survival time, dose: 50.0 mg/kg/injection, schedule: Q01DX005 (ip), vehicle: saline with Tween-80): 120 % of control | T/C (endpoint: median survival time, dose: 100.0 mg/kg/injection, schedule: Q01DX005 (ip), vehicle: saline): 166 % of control | T/C (endpoint: median survival time, dose: 100.0 mg/kg/injection, schedule: Q01DX009 (ip), vehicle: saline with Tween-80): 160 % of control | T/C (endpoint: median survival time, dose: 200.0 mg/kg/injection, schedule: Q01DX005 (ip), vehicle: saline with Tween-80): 171 % of control | T/C (endpoint: median survival time, dose: 200.0 mg/kg/injection, schedule: Q01DX005 (ip), vehicle: saline): 166 % of control | T/C (endpoint: median survival time, dose: 200.0 mg/kg/injection, schedule: Q01DX009 (ip), vehicle: saline with Tween-80): 159 % of control | T/C (endpoint: median survival time, dose: 200.0 mg/kg/injection, schedule: Q01DX009 (ip), vehicle: saline): 157 % of control | T/C (endpoint: median survival time, dose: 400.0 mg/kg/injection, schedule: Q01DX005 (ip), vehicle: saline with Tween-80): 161 % of control | T/C (endpoint: median survival time, dose: 400.0 mg/kg/injection, schedule: Q01DX005 (ip), vehicle: saline): 180 % of control | T/C (endpoint: median survival time, dose: 400.0 mg/kg/injection, schedule: Q01DX009 (ip), vehicle: saline with Tween-80): 160 % of control | T/C (endpoint: median survival time, dose: 400.0 mg/kg/injection, schedule: Q01DX009 (ip), vehicle: saline): 155 % of control

c1ccc(CN2CCc3cc4c(cc3C2)OCO4)cc1
T/C (endpoint: mean survival time, dose: 37.5 mg/kg/injection, schedule: Q01DX001 (ip), vehicle: saline): 102 % of control | T/C (endpoint: mean survival time, dose: 75.0 mg/kg/injection, schedule: Q01DX001 (ip), vehicle: saline): 102 % of control | T/C (endpoint: mean survival time, dose: 150.0 mg/kg/injection, schedule: Q01DX001 (ip), vehicle: saline): 90 % of control

C=C1C(=O)O[C@@H]2C[C@@H](C)[C@@H]3C=CC(=O)[C@@]3(C)[C@@H](O)[C@H]12
T/C (endpoint: mean survival time, dose: 8.0 mg/kg/injection, schedule: Q04DX003 (ip), vehicle: saline with Tween-80): 117 % of control

O=c1[nH]cnc2c1ncn2C1OC(CO)C(O)C1O.O=c1[nH]cnc2c1ncn2C1OC(CO)C(O)C1O.[NH2-].[NH2-].[Pt+2] (configuration not stated)
T/C (endpoint: mean survival time, dose: 12.5 mg/kg/injection, schedule: Q01DX009 (ip), vehicle: saline with Tween-80): 92 % of control | T/C (endpoint: mean survival time, dose: 25.0 mg/kg/injection, schedule: Q01DX009 (ip), vehicle: saline with Tween-80): 96 % of control | T/C [4]: 100 % of control | T/C [5]: 92 % of control | T/C [6]: 103 % of control

O.O.O=C(O)CC(=O)O.[NH-]C1CCCCC1[NH-].[Pt+2] (configuration not stated)
T/C (endpoint: mean survival time, dose: 12.5 mg/kg/injection, schedule: Q04DX003 (ip), vehicle: dextrose): 98 % of control

CCC(C(=O)O)C(=O)O.[NH-]CC1CCCC[N-]1.[Pt+2]
T/C (endpoint: mean survival time, dose: 3.13 mg/kg/injection, schedule: Q04DX003 (ip), vehicle: saline): 98 % of control | T/C (endpoint: mean survival time, dose: 25.0 mg/kg/injection, schedule: Q04DX003 (ip), vehicle: saline): 115 % of control | T/C (endpoint: mean survival time, dose: 50.0 mg/kg/injection, schedule: Q04DX003 (ip), vehicle: saline): 124 % of control | T/C (endpoint: median survival time, dose: 200.0 mg/kg/injection, schedule: Q04DX003 (ip), vehicle: distilled water + Tween-80): 103 % of control

Cc1ccc(S(=O)(=O)N/N=C2\CC3CCC2(C)C3(C)C)cc1 (configuration not stated)
T/C [4]: 96 % of control | T/C [5]: 88 % of control | T/C [6]: 100 % of control

O=NN(CCF)C(=O)NC1CCCCC1
T/C (endpoint: median survival time, dose: 2.5 mg/kg/injection, schedule: Q01DX001 (ip), vehicle: saline): 101 % of control | T/C (endpoint: median survival time, dose: 2.5 mg/kg/injection, schedule: Q04DX002 (ip), vehicle: saline): 93 % of control | T/C (endpoint: median survival time, dose: 5.0 mg/kg/injection, schedule: Q01DX001 (ip), vehicle: saline): 101 % of control | T/C (endpoint: median survival time, dose: 5.0 mg/kg/injection, schedule: Q04DX002 (ip), vehicle: saline): 106 % of control | T/C (endpoint: median survival time, dose: 10.0 mg/kg/injection, schedule: Q01DX001 (ip), vehicle: saline): 102 % of control | T/C (endpoint: median survival time, dose: 10.0 mg/kg/injection, schedule: Q04DX002 (ip), vehicle: saline): 120 % of control and 223 % of control | T/C (endpoint: median survival time, dose: 20.0 mg/kg/injection, schedule: Q01DX001 (ip), vehicle: saline): 103 % of control | T/C (endpoint: median survival time, dose: 20.0 mg/kg/injection, schedule: Q04DX002 (ip), vehicle: saline): 365 % of control | T/C (endpoint: median survival time, dose: 40.0 mg/kg/injection, schedule: Q01DX001 (ip), vehicle: saline): 120 % of control | T/C (endpoint: median survival time, dose: 40.0 mg/kg/injection, schedule: Q04DX002 (ip), vehicle: saline): 216 % of control and 365 % of control | T/C (endpoint: median survival time, dose: 80.0 mg/kg/injection, schedule: Q01DX001 (ip), vehicle: saline): 168 % of control | T/C (endpoint: median survival time, dose: 80.0 mg/kg/injection, schedule: Q04DX002 (ip), vehicle: saline): 207 % of control and 361 % of control

CCC[CH2][Sn]1([CH2]CCC)[N](S(=O)(=O)c2ccc(C)cc2)c2ccccc2[N]1S(=O)(=O)c1ccc(C)cc1
T/C (endpoint: mean survival time, dose: 3.13 mg/kg/injection, schedule: Q04DX002 (ip), vehicle: saline with Tween-80): 94 % of control | T/C (endpoint: mean survival time, dose: 6.25 mg/kg/injection, schedule: Q04DX002 (ip), vehicle: saline with Tween-80): 102 % of control | T/C (endpoint: mean survival time, dose: 12.5 mg/kg/injection, schedule: Q04DX002 (ip), vehicle: saline with Tween-80): 94 % of control

CCOC(=O)C(Cc1ccccc1Cl)(Cc1ccccc1Cl)c1ccccc1
T/C [1]: 93 % of control | T/C [2]: 98 % of control | T/C [3]: 90 % of control

CCOC(=O)c1cc(C=O)nc2c(Cl)cc(Cl)cc12
T/C [1]: 96 % of control | T/C [3]: 98 % of control

O=[As](O)(CC(O)COc1ccccc1)c1cccc(Cl)c1 (configuration not stated)
T/C (endpoint: mean survival time, dose: 6.25 mg/kg/injection, schedule: Q04DX003 (ip), vehicle: saline with Tween-80): 103 % of control | T/C (endpoint: mean survival time, dose: 12.5 mg/kg/injection, schedule: Q04DX003 (ip), vehicle: saline with Tween-80): 107 % of control | T/C (endpoint: mean survival time, dose: 25.0 mg/kg/injection, schedule: Q04DX003 (ip), vehicle: saline with Tween-80): 100 % of control

NC(=O)N/N=C/COC(=O)c1ccccc1
T/C (endpoint: mean survival time, dose: 100.0 mg/kg/injection, schedule: Q01DX001 (ip), vehicle: saline with Tween-80): 93 % of control | T/C (endpoint: mean survival time, dose: 200.0 mg/kg/injection, schedule: Q01DX001 (ip), vehicle: saline with Tween-80): 91 % of control | T/C (endpoint: mean survival time, dose: 400.0 mg/kg/injection, schedule: Q01DX001 (ip), vehicle: saline with Tween-80): 98 % of control

CCCCCCCCCCCCCCCCCCNC(=O)Nc1ccc(C)c(C)c1
T/C [5]: 104 % of control | T/C [1]: 91 % of control | T/C [6]: 105 % of control | T/C [2]: 89 % of control | T/C [7]: 105 % of control | T/C [3]: 98 % of control

C=CC1CC=CCC1 (configuration not stated)
T/C [5]: 103 % of control | T/C [6]: 106 % of control

Clc1nc(Cl)nc(-c2cn(-c3ccccc3)c3ccccc23)n1
T/C [5]: 95 % of control | T/C [1]: 89 % of control | T/C [6]: 95 % of control | T/C [2]: 97 % of control | T/C [7]: 96 % of control | T/C [3]: 98 % of control

COc1ccc(COc2ccc([N+](=O)[O-])cc2)cc1OC
T/C (endpoint: mean survival time, dose: 75.0 mg/kg/injection, schedule: Q04DX002 (ip), vehicle: saline with Tween-80): 87 % of control | T/C (endpoint: mean survival time, dose: 150.0 mg/kg/injection, schedule: Q04DX002 (ip), vehicle: saline with Tween-80): 102 % of control
